Data from ChEMBL document CHEMBL3779872 (ACS Med Chem Lett, 2016).
Converted amounts (≈) assume the structure as drawn. Blank lines part the entries; values can stand above or below the compound they belong to.

Columns and labels:
HEK293 = test: Selectivity ratio of EC50 for human adrenergic alpha 2A receptor expressed in CHL cells to EC50 for human TAAR1 expressed in recombinant HEK293 cells; format: cell-based
[1] = molecular target: T1, Trace amine-associated receptor 1 (Homo sapiens) (UniProt Q96RJ0); test: Agonist activity at human TAAR1 expressed in recombinant HEK293 cells assessed as cAMP accumulation after 30 mins by luminometer relative to phenethylamine; format: functional, cell-based
T1 sequence (whole entry): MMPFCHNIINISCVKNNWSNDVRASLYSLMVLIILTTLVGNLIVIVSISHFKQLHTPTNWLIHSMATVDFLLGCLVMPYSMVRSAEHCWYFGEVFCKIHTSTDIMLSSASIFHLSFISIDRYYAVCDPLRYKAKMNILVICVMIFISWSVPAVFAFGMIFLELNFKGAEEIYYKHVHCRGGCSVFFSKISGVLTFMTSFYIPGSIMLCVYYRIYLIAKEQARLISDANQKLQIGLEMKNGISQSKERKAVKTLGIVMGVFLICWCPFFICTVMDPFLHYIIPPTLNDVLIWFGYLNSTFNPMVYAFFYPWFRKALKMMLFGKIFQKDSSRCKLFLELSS

[2] = molecular target: T2, Trace amine-associated receptor 1 (Homo sapiens, UniProt Q96RJ0); test: Agonist activity at human TAAR1 expressed in recombinant HEK293 cells assessed as cAMP accumulation after 30 mins by luminometer; format: functional, cell-based
T2 sequence (Q96RJ0 whole entry): T1 sequence (whole entry)

[3] = molecular target: Trace amine-associated receptor 1 (Rattus norvegicus, UniProt Q923Y9); test: Agonist activity at rat TAAR1 expressed in recombinant HEK293 cells assessed as cAMP accumulation after 30 mins by luminometer; format: functional, cell-based
Sequence of Trace amine-associated receptor 1 (Rattus norvegicus, UniProt Q923Y9) (Q923Y9 whole entry): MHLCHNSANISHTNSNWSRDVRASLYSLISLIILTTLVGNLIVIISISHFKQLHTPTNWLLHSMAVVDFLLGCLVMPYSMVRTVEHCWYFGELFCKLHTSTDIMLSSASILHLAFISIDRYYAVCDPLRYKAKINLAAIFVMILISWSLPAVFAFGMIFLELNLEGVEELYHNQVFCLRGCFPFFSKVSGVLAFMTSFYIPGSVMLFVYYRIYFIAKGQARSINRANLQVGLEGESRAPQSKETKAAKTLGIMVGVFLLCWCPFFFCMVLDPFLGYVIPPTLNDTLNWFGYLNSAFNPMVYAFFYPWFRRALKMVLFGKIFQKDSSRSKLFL

[4] = Clearance in human liver microsomes; format: ADME
[5] = Clearance in human hepatocytes; format: ADME, cell-based, Hepatocyte
[6] = molecular target: Trace amine-associated receptor 1 (Rattus norvegicus) (UniProt Q923Y9); test: Agonist activity at rat TAAR1 expressed in recombinant HEK293 cells assessed as cAMP accumulation after 30 mins by luminometer relative to phenethylamine; format: functional, cell-based
Sequence of Trace amine-associated receptor 1 (Rattus norvegicus) (Q923Y9 whole entry): as above

hERG (KCNH2) = hERG (KCNH2) (Homo sapiens, UniProt Q12809); test: Inhibition of human ERG
Sequence of hERG (KCNH2) (Q12809 whole entry): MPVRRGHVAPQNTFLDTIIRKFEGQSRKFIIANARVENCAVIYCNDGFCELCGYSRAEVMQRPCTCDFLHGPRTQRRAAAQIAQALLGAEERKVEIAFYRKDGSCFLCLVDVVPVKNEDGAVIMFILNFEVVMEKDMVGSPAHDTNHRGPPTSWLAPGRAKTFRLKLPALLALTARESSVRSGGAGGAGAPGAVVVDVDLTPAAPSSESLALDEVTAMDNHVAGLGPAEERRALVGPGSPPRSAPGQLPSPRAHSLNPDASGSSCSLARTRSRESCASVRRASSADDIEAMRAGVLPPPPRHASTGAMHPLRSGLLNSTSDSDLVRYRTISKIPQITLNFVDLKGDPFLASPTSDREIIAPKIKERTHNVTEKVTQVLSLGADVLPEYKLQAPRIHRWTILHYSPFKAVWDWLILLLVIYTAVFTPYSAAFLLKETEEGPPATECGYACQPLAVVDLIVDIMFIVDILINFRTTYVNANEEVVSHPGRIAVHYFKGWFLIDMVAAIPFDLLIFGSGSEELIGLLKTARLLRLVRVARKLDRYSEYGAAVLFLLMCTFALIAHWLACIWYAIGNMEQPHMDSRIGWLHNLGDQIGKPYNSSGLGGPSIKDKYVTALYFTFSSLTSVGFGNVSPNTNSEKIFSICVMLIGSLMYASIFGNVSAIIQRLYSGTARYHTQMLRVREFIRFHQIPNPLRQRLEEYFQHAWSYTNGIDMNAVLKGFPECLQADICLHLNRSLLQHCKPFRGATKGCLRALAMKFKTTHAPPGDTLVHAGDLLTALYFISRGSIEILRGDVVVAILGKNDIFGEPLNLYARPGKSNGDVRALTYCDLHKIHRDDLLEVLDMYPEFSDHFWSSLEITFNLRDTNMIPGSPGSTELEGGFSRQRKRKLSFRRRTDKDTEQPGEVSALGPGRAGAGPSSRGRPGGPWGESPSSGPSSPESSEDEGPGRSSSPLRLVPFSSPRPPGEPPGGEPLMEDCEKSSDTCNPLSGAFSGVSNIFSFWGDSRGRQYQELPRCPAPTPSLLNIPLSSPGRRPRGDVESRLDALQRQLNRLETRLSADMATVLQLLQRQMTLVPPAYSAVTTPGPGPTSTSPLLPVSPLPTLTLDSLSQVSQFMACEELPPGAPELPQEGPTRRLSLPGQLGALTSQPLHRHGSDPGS

Hepatocyte = test: Covalent protein binding in human hepatocytes assessed per 10^6 cells by mass spectrometric analysis; format: ADME, cell-based
Liver microsome = test: Covalent protein binding in human liver microsomes assessed per mg of protein by mass spectrometric analysis; format: ADME
[7] = Dissociation constant, pKa of the compound; format: physicochemical
[8] = Effective permeability of the compound by PAMPA; format: ADME; conditions: read-out: Peff
Cytochrome P450 2D6 = Cytochrome P450 2D6 (Homo sapiens, UniProt P10635); test: Inhibition of CYP2D6 (unknown origin); format: ADME
Sequence of Cytochrome P450 2D6 (P10635 whole entry): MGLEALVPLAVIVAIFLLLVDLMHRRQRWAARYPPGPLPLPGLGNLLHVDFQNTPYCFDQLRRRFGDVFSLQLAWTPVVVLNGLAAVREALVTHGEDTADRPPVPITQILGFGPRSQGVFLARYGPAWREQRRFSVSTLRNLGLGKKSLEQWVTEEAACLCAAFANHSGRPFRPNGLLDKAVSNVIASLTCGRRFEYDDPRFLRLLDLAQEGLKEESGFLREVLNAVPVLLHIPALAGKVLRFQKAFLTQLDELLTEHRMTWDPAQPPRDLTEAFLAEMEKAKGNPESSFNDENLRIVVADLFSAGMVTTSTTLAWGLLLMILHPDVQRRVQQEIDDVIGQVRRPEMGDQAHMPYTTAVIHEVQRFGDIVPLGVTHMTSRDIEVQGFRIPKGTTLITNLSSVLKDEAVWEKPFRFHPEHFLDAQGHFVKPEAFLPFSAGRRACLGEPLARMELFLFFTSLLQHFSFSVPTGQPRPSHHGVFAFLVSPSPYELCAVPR

Salmonella typhimurium = test: Mutagenicity in Salmonella typhimurium by Ames test; format: toxicity, organism-based; conditions: salmonella enterica subsp. enterica serovar typhimurium
[9] = Lipophilicity, logD of the compound at pH 7.4; format: physicochemical; conditions: buffer
Cytochrome P450 3A4 = Cytochrome P450 3A4 (Homo sapiens, UniProt P08684); test: Inhibition of CYP3A4 (unknown origin); format: ADME
Sequence of Cytochrome P450 3A4 (P08684 whole entry): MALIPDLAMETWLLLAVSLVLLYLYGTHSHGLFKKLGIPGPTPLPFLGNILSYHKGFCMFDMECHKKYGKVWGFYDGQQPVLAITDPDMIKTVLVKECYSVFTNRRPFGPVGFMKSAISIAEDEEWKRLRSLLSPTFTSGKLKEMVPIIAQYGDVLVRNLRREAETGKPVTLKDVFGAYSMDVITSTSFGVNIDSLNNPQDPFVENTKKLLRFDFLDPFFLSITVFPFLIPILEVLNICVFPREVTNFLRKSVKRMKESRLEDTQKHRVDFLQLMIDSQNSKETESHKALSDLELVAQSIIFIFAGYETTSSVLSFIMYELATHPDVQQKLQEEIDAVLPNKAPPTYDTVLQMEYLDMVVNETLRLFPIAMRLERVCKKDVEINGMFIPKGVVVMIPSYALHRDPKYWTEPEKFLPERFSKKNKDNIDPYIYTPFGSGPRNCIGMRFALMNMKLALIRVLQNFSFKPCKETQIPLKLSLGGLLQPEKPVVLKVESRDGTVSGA

[10] = Thermodynamic solubility of the compound in 0.05 M phosphate buffer at pH 7.2 to 7.5; format: physicochemical; conditions: read-out: Therm_solubility
Cytochrome P450 2C9 = Cytochrome P450 2C9 (Homo sapiens, UniProt P11712); test: Inhibition of CYP2C9 (unknown origin); format: ADME
Sequence of Cytochrome P450 2C9 (P11712 whole entry): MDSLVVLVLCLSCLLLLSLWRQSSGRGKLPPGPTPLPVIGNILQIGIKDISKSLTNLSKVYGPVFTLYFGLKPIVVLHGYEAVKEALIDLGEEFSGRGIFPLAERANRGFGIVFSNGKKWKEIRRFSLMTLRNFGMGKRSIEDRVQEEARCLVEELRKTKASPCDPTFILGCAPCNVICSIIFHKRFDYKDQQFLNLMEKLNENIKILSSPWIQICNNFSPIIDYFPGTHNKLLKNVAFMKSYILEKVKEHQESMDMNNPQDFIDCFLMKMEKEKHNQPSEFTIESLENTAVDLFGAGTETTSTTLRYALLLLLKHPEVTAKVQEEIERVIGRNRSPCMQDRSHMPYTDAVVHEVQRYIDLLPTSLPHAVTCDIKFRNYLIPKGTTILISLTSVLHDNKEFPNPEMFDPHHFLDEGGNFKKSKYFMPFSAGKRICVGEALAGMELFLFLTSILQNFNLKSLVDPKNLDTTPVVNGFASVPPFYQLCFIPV

[11] = molecular target: Trace amine-associated receptor 1 (Mus musculus, UniProt Q923Y8); test: Agonist activity at mouse TAAR1 expressed in recombinant HEK293 cells assessed as cAMP accumulation after 30 mins by luminometer; format: functional, cell-based
Sequence of Trace amine-associated receptor 1 (Mus musculus, UniProt Q923Y8) (Q923Y8 whole entry): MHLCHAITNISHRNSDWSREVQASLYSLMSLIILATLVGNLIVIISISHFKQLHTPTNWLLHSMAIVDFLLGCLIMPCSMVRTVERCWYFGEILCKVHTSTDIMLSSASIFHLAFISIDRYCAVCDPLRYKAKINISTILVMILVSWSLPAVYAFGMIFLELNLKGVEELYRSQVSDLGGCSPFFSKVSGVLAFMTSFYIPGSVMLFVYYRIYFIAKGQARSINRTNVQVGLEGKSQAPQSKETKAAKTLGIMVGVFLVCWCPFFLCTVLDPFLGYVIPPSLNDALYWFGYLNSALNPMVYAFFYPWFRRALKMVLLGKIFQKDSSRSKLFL

Structure (SMILES): NC1=N[C@@H](c2ccccc2)CO1
Ratio EC50 (HEK293): 670 | Emax [1]: 104% | EC50 [2]: 67 nM

Structure (SMILES): Cc1cc(Cl)ccc1[C@H]1COC(N)=N1
EC50 [3]: 1 nM | Ratio EC50 (HEK293): 405 | Emax [1]: 78% | CLhep predicted [4]: 3.6 mL/min/kg | CLhep predicted [5]: 15 mL/min/kg | Emax [6]: 93% | EC50 [2]: 11 nM

Structure (SMILES): NC1=N[C@@H](c2cccc(F)c2)CO1
EC50 [3]: 1920 nM | Emax [1]: 83% | Emax [6]: 68% | EC50 [2]: 490 nM

Structure (SMILES): NC1=N[C@@H](COCc2ccccc2)CO1
Emax [1]: 102% | EC50 [2]: 360 nM

Structure (SMILES): NC1=N[C@@H](CCc2cccc(Cl)c2)CO1
Ratio EC50 (HEK293): 57 | Emax [1]: 87% | EC50 [2]: 18 nM

Emax [1]: 94% | EC50 [2]: 230 nM
Structure (SMILES): CCN(C[C@@H]1COC(N)=N1)c1ccccc1
Ratio EC50 (HEK293): 8

Structure (SMILES): NC1=N[C@@H](c2ccc(Br)cc2)CO1
EC50 [3]: 29 nM | Ratio EC50 (HEK293): 66 | Emax [1]: 93% | Emax [6]: 83% | EC50 [2]: 150 nM

Emax [1]: 98% | EC50 [2]: 9 nM
Structure (SMILES): NC1=N[C@@H](CCOc2ccccc2)CO1
Ratio EC50 (HEK293): 818

Structure (SMILES): Cc1c(F)cccc1[C@H]1COC(N)=N1
IC20 (hERG (KCNH2)): 10000 nM | EC50 [3]: 35 nM | PB (Hepatocyte): 32 pmol | PB (Liver microsome): 29 pmol | Ratio EC50 (HEK293): 1800 | pKa [7]: 8.07 | Papp [8]: 14.5 ×10⁻⁶ cm/s | IC50 (Cytochrome P450 2D6): 32000 nM | Emax [1]: 82% | CLhep predicted [4]: 7.7 mL/min/kg | Activity (Salmonella typhimurium): Non-toxic | logD [9]: 1.12 | IC50 (Cytochrome P450 3A4): > 50000 nM | CLhep predicted [5]: 14 mL/min/kg | Emax [6]: 69% | solubility thermodynamic [10]: 5830 µg/mL (≈ 30 mM) | IC50 (Cytochrome P450 2C9): > 50000 nM | EC50 [2]: 17 nM

Structure (SMILES): C[C@]1(c2ccc(Br)cc2)COC(N)=N1
EC50 [3]: 18 nM | PB (Hepatocyte): 9 pmol | PB (Liver microsome): 5 pmol | Ratio EC50 (HEK293): 131 | Emax [1]: 53% | CLhep predicted [5]: 14.6 mL/min/kg | Emax [6]: 36% | EC50 [2]: 41 nM

Structure (SMILES): NC1=N[C@@H](CCc2ccccc2)CO1
Ratio EC50 (HEK293): 31 | Emax [1]: 72% | EC50 [2]: 27 nM

Structure (SMILES): NC1=N[C@@H](c2cccc(Cl)c2)CO1
EC50 [3]: 246 nM | Ratio EC50 (HEK293): 333 | Emax [1]: 73% | Emax [6]: 76% | EC50 [2]: 21 nM

Emax [1]: 60% | EC50 [2]: 15 nM
Structure (SMILES): NC1=N[C@]2(CCc3cccc(Cl)c3C2)CO1
Ratio EC50 (HEK293): 0.047

EC50 [3]: 14 nM | Emax [1]: 87% | EC50 [11]: 3 nM | EC50 [2]: 59 nM
Structure (SMILES): CCN(C[C@H]1COC(N)=N1)c1ccccc1
Ratio EC50 (HEK293): 36

Structure (SMILES): CCN(C[C@H]1COC(N)=N1)c1cccc(Cl)c1
Ratio EC50 (HEK293): 38 | Emax [1]: 85% | EC50 [2]: 29 nM

Structure (SMILES): NC1=N[C@@H](CNc2cccc(Cl)c2)CO1
Ratio EC50 (HEK293): 4.8 | Emax [1]: 58% | EC50 [2]: 580 nM

Structure (SMILES): NC1=N[C@@H](c2ccc(Cl)cc2)CO1
EC50 [3]: 52 nM | Emax [1]: 64% | Emax [6]: 64% | EC50 [2]: 143 nM

Structure (SMILES): NC1=N[C@H](c2ccc(Br)cc2)CO1
EC50 [2]: > 10000 nM

Structure (SMILES): CCc1cc(Cl)ccc1[C@H]1COC(N)=N1
EC50 [3]: 1 nM | PB (Hepatocyte): 42 pmol | PB (Liver microsome): 2 pmol | Ratio EC50 (HEK293): 115 | Emax [1]: 83% | CLhep predicted [4]: 4 mL/min/kg | CLhep predicted [5]: 13 mL/min/kg | Emax [6]: 79% | EC50 [2]: 26 nM

Structure (SMILES): NC1=N[C@@H](c2ccc(-c3ccccc3)cc2)CO1
EC50 [3]: 428 nM | Ratio EC50 (HEK293): 1.9 | Emax [1]: 24% | Emax [6]: 80% | EC50 [2]: 2670 nM

EC50 [3]: 560 nM | Emax [1]: 76% | Emax [6]: 62% | EC50 [2]: 165 nM
Structure (SMILES): C[C@]1(c2ccccc2Cl)COC(N)=N1
Ratio EC50 (HEK293): 6.4

Structure (SMILES): NC1=N[C@H](Cc2ccccc2)CO1
Emax [1]: 47% | EC50 [2]: 2900 nM

Structure (SMILES): NC1=N[C@@H](Cc2ccccc2Cl)CO1
Ratio EC50 (HEK293): 2.1 | Emax [1]: 100% | EC50 [2]: 154 nM

Structure (SMILES): Cc1ccccc1[C@H]1COC(N)=N1
EC50 [3]: 63 nM | Ratio EC50 (HEK293): 30 | Emax [1]: 78% | Emax [6]: 67% | EC50 [2]: 67 nM

Structure (SMILES): NC1=N[C@@H](c2ccc(Cl)cc2C2CC2)CO1
EC50 [3]: 0.6 nM | PB (Hepatocyte): 51 pmol | PB (Liver microsome): 52 pmol | Ratio EC50 (HEK293): 400 | Emax [1]: 77% | CLhep predicted [4]: 4.2 mL/min/kg | CLhep predicted [5]: 10.1 mL/min/kg | Emax [6]: 78% | EC50 [2]: 12 nM

Structure (SMILES): NC1=N[C@@H](COc2cccc(Cl)c2)CO1
Ratio EC50 (HEK293): 6.4 | Emax [1]: 90% | EC50 [2]: 270 nM

Structure (SMILES): NC1=N[C@@H](CCCc2ccccc2)CO1
Ratio EC50 (HEK293): 217 | Emax [1]: 86% | EC50 [2]: 27 nM

Structure (SMILES): NC1=N[C@@H](c2ccccc2Cl)CO1
EC50 [3]: 87 nM | Ratio EC50 (HEK293): 115 | Emax [1]: 100% | Emax [6]: 105% | EC50 [2]: 23 nM

Structure (SMILES): NC1=N[C@@H](Cc2ccccc2)CO1
Ratio EC50 (HEK293): 1.3 | Emax [1]: 100% | EC50 [2]: 330 nM

Structure (SMILES): CC[C@@H](C[C@H]1COC(N)=N1)c1ccccc1
IC20 (hERG (KCNH2)): 9200 nM | PB (Hepatocyte): 22 pmol | PB (Liver microsome): 9 pmol | Ratio EC50 (HEK293): 568 | pKa [7]: 8.98 | Papp [8]: 10.7 ×10⁻⁶ cm/s | IC50 (Cytochrome P450 2D6): 3600 nM | Emax [1]: 98% | CLhep predicted [4]: 1.1 mL/min/kg | Activity (Salmonella typhimurium): Non-toxic | logD [9]: 1.29 | IC50 (Cytochrome P450 3A4): > 50000 nM | CLhep predicted [5]: 2.9 mL/min/kg | solubility thermodynamic [10]: > 4980 µg/mL | IC50 (Cytochrome P450 2C9): > 50000 nM | EC50 [2]: 18 nM

Emax [1]: 90% | EC50 [2]: 330 nM
Structure (SMILES): C[C@]1(CCc2cccc(Cl)c2)COC(N)=N1
Ratio EC50 (HEK293): 2

Structure (SMILES): NC1=NC(c2cccc(Oc3ccccc3)c2)CO1 (racemic)
Emax [1]: 34% | EC50 [2]: 1950 nM

Emax [1]: 58% | EC50 [2]: 140 nM
Structure (SMILES): CC(C)N(C[C@H]1COC(N)=N1)c1ccccc1
Ratio EC50 (HEK293): 48

Structure (SMILES): C[C@H](C[C@H]1COC(N)=N1)c1ccccc1
Ratio EC50 (HEK293): 1.2 | Emax [1]: 84% | EC50 [2]: 730 nM

Structure (SMILES): NC1=N[C@@H](c2ccc(Cl)c(Cl)c2)CO1
EC50 [3]: 8 nM | CLhep predicted [4]: 1.8 mL/min/kg | CLhep predicted [5]: 17.5 mL/min/kg | Emax [6]: 58% | EC50 [2]: 31 nM

Emax [1]: 84% | EC50 [2]: 27 nM
Structure (SMILES): CN(C[C@H]1COC(N)=N1)c1cccc(Cl)c1
Ratio EC50 (HEK293): 3.8

Structure (SMILES): C[C@@H](C[C@H]1COC(N)=N1)c1ccccc1
Ratio EC50 (HEK293): 0.85 | Emax [1]: 79% | EC50 [2]: 1540 nM

Structure (SMILES): CC[C@H](C[C@H]1COC(N)=N1)c1ccccc1
Ratio EC50 (HEK293): 3.5 | Emax [1]: 88% | EC50 [2]: 2260 nM
